Measured values reported in ChEMBL document CHEMBL4043190 (Bioorg Med Chem Lett, 2017).

Experiments:
Mus musculus [1] = experiment: Toxicity in IMQ-induced BALB/c mouse model assessed as reduction in platelet levels at 70 mg/kg, po bid for 5 days; assay type: organism-based; parameters: scale not given: the % may be the effect or the level left; details: in vivo, 120 h
[2] = biological target: Non-receptor tyrosine-protein kinase TYK2 (Homo sapiens, UniProt P29597); experiment: Inhibition of TYK2 (unknown origin) by biochemical assay
[3] = Efflux ratio of permeability from basolateral to apical over apical to basolateral side in MDCK cells; assay type: ADME, cell-based, Canis lupus familiaris; details: dog
[4] = biological target: T1, Cyclin-dependent kinase 9 (Homo sapiens, UniProt P50750); experiment: Inhibition of CDK9 (unknown origin)
[5] = Protein binding in human plasma; assay type: ADME, cell-free; details: read-out: PPB (converted)
Plasma [6] = experiment: Unbound drug concentration in IL-23/IL-1beta induced C57BL/6J mouse plasma at 70 mg/kg, po preincubated for 30 mins followed by cytokine addition measured after 3.5 hrs post dose; assay type: ADME, organism-based; details: in vivo
Mus musculus [7] = experiment: Antiinflammatory activity in IMQ-induced BALB/c mouse model assessed as reduction in serum IL-17F production administered po bid for 5 days; assay type: functional, organism-based
[8] = Ratio of unbound drug concentration in IL-23/IL-1beta induced C57BL/6J mouse plasma at 100 mg/kg, po to EC50 for TYK2 (unknown origin) assessed as inhibition of IL-23 induced STAT3 phosphorylation
Mus musculus [9] = experiment: Antiinflammatory activity in IMQ-induced BALB/c mouse model assessed as reduction in serum IL-17F production at 70 mg/kg, po bid for 5 days; assay type: functional; parameters: scale not given: the % may be the effect or the level left
[10] = biological target: T2, Tyrosine-protein kinase JAK2 (Homo sapiens, UniProt O60674); experiment: Inhibition of JAK2 (unknown origin) assessed as reduction in EPO-mediated STAT5 phosphorylation by cell based readout assay
Mus musculus [11] = experiment: Antiinflammatory activity in IMQ-induced BALB/c mouse model assessed as reduction in serum IL-17F production at 30 mg/kg, po bid for 5 days; assay type: functional; parameters: scale not given: the % may be the effect or the level left
Mus musculus [12] = experiment: Toxicity in IMQ-induced BALB/c mouse model assessed as reduction in platelet levels at 100 mg/kg, po bid for 5 days; assay type: organism-based; parameters: scale not given: the % may be the effect or the level left; details: in vivo, 120 h
Mus musculus [13] = experiment: Antiinflammatory activity in IMQ-induced BALB/c mouse model assessed as reduction in serum IL-17F production at 100 mg/kg, po bid for 5 days; assay type: functional; parameters: scale not given: the % may be the effect or the level left
[14] = Ratio of unbound drug concentration in IL-23/IL-1beta induced C57BL/6J mouse plasma at 70 mg/kg, po to EC50 for TYK2 (unknown origin) assessed as inhibition of IL-23 induced STAT3 phosphorylation
[15] = biological target: T1, Cyclin-dependent kinase 9; details: 70 nM
Homo sapiens = organism: Homo sapiens; experiment: Selectivity ratio of Ki for JAK2 (unknown origin) to Ki for TYK2 (unknown origin)
[16] = Protein binding in mouse plasma; assay type: ADME, cell-free; details: read-out: PPB (converted)
Mus musculus [17] = experiment: Anti-inflammatory activity in IL-23/IL-1beta induced C57BL/6J mouse assessed as inhibition of IL-17F level in serum at 70 mg/kg, po pretreated for 30 mins followed by cytokine addition measured after 3 hrs by ELISA relative to control; assay type: functional
Mus musculus [18] = experiment: Antiinflammatory activity in IMQ-induced BALB/c mouse psoriasis model assessed as reduction in ear thickness at 30 mg/kg, po bid for 5 days meausred on day 6; assay type: functional; parameters: scale not given: the % may be the effect or the level left
[19] = Permeability from apical side to basolateral side in MDCK cells; assay type: ADME, cell-based, Canis lupus familiaris; details: dog, read-out: permeability
[20] = biological target: T3, Cyclin-dependent kinase 2 (Homo sapiens, UniProt P24941); details: 70 nM
Mus musculus [21] = experiment: Anti-inflammatory activity in IL-23/IL-1beta induced C57BL/6J mouse assessed as inhibition of IL-17F level in serum at 100 mg/kg, po pretreated for 30 mins followed by cytokine addition measured after 3 hrs by ELISA relative to control; assay type: functional
Plasma [22] = experiment: Unbound drug concentration in IL-23/IL-1beta induced C57BL/6J mouse plasma at 30 mg/kg, po preincubated for 30 mins followed by cytokine addition measured after 3.5 hrs post dose; assay type: ADME, organism-based; details: in vivo
Plasma [23] = experiment: Unbound drug concentration in IL-23/IL-1beta induced C57BL/6J mouse plasma at 100 mg/kg, po preincubated for 30 mins followed by cytokine addition measured after 3.5 hrs post dose; assay type: ADME, organism-based; details: in vivo
[24] = Protein binding in rat plasma; assay type: ADME, cell-free; details: read-out: PPB (converted)
[25] = biological target: T2, Tyrosine-protein kinase JAK2; experiment: Inhibition of JAK2 (unknown origin) by biochemical assay
[26] = biological target: Substance-P receptor (Homo sapiens) (UniProt P25103); experiment: Inhibition of NK1 (unknown origin) at 10 uM relative to control
[27] = biological target: Tyrosine-protein kinase JAK1 (Homo sapiens, UniProt P23458); experiment: Inhibition of JAK1 (unknown origin)
[28] = Ratio of unbound drug concentration in IL-23/IL-1beta induced C57BL/6J mouse plasma at 100 mg/kg, po to EC50 for JAK2 (unknown origin) assessed as inhibition of EPO-mediated STAT5 phosphorylation; assay type: organism-based; details: in vivo
Mus musculus [29] = experiment: Anti-inflammatory activity in IL-23/IL-1beta induced C57BL/6J mouse assessed as inhibition of IL-17F level in serum at 30 mg/kg, po pretreated for 30 mins followed by cytokine addition measured after 3 hrs by ELISA relative to control; assay type: functional
[30] = Clearance in dog; assay type: ADME, Canis lupus familiaris; details: in vivo
[31] = biological target: T3, Cyclin-dependent kinase 2; experiment: Inhibition of CDK2 (unknown origin)
[32] = Ratio of unbound drug concentration in IL-23/IL-1beta induced C57BL/6J mouse plasma at 30 mg/kg, po to EC50 for JAK2 (unknown origin) assessed as inhibition of EPO-mediated STAT5 phosphorylation; assay type: organism-based; details: in vivo
[33] = Clearance in rat; assay type: ADME; details: in vivo
Mus musculus [34] = experiment: Toxicity in IMQ-induced BALB/c mouse model assessed as reduction in platelet levels at 30 mg/kg, po bid for 5 days; assay type: organism-based; parameters: scale not given: the % may be the effect or the level left; details: in vivo, 120 h

T1 sequence (P50750 whole entry): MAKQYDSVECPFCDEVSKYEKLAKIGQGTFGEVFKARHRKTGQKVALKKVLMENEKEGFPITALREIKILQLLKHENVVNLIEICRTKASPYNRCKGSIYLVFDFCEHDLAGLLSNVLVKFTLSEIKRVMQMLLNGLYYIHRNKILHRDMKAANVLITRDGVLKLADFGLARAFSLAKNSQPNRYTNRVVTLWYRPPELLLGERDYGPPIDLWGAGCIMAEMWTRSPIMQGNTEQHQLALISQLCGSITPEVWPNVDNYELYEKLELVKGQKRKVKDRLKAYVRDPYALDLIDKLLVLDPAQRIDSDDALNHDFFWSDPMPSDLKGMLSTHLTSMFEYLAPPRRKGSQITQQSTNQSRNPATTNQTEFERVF
T2 sequence (O60674 whole entry): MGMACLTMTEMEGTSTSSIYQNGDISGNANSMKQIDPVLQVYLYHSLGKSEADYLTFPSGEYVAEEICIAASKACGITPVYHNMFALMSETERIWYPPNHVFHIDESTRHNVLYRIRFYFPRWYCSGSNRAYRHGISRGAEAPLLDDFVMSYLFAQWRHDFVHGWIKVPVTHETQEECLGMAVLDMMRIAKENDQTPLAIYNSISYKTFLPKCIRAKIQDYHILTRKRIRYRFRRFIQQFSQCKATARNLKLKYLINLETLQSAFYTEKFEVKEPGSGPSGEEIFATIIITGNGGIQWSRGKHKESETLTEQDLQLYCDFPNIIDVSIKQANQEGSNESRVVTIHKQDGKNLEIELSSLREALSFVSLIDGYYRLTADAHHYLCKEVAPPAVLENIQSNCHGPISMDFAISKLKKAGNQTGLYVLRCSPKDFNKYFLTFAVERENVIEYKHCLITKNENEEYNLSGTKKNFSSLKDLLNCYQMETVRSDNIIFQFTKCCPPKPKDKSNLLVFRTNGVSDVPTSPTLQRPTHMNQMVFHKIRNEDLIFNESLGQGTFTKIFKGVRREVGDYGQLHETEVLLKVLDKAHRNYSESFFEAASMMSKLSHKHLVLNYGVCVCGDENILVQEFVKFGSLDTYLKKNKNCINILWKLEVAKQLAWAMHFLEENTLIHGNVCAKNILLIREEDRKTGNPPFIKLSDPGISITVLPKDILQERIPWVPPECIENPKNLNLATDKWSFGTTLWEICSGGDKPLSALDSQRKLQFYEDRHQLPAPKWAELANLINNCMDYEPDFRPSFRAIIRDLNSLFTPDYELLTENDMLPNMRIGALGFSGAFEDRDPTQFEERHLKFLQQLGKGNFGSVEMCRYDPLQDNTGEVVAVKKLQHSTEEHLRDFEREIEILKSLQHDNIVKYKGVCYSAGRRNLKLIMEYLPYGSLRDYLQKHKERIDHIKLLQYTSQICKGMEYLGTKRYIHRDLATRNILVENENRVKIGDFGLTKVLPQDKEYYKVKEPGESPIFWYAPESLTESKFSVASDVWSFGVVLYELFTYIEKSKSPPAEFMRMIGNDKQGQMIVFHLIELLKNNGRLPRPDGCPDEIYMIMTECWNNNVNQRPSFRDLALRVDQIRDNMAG
Sequence of Substance-P receptor (Homo sapiens) (P25103 whole entry): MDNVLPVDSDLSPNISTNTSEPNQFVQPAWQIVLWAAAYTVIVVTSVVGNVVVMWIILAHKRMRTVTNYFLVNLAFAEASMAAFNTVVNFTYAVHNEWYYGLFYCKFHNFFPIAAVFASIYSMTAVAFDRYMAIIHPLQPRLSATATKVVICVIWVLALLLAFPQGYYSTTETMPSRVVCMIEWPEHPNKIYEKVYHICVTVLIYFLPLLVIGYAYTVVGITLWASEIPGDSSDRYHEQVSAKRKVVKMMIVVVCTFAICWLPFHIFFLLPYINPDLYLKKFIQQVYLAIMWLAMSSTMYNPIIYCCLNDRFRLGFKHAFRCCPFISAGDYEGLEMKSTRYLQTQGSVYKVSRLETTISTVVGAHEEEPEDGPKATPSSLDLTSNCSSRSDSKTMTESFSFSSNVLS
Sequence of Tyrosine-protein kinase JAK1 (P23458 whole entry): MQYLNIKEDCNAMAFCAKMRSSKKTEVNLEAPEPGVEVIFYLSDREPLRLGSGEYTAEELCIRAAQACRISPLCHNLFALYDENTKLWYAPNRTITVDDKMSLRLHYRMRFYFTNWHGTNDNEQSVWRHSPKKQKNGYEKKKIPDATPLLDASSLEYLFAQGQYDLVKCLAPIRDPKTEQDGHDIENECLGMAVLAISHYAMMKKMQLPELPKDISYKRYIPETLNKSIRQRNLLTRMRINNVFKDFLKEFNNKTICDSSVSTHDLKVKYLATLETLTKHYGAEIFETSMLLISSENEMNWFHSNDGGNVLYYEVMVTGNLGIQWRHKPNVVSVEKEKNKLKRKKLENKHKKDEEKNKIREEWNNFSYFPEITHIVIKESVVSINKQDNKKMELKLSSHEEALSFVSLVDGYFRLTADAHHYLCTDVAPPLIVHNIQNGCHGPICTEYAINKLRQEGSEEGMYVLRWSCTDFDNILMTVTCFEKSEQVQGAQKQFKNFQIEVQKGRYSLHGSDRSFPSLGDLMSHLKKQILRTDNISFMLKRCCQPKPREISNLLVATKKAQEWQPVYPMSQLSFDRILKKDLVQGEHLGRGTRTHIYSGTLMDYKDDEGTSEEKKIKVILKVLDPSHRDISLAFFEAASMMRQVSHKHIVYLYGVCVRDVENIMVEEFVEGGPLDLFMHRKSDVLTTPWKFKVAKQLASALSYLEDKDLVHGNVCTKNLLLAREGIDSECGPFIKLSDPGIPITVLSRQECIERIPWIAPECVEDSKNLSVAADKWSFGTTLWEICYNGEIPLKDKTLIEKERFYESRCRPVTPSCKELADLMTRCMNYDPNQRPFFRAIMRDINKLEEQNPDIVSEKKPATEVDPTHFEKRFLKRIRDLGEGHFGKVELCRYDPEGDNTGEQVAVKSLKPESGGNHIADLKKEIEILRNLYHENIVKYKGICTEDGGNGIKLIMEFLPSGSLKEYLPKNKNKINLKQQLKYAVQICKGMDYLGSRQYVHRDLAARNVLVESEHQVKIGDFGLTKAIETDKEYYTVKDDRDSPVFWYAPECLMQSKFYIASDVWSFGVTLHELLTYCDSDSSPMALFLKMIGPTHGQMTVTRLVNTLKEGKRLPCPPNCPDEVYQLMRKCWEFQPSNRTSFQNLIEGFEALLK
Sequence of Non-receptor tyrosine-protein kinase TYK2 (P29597 whole entry): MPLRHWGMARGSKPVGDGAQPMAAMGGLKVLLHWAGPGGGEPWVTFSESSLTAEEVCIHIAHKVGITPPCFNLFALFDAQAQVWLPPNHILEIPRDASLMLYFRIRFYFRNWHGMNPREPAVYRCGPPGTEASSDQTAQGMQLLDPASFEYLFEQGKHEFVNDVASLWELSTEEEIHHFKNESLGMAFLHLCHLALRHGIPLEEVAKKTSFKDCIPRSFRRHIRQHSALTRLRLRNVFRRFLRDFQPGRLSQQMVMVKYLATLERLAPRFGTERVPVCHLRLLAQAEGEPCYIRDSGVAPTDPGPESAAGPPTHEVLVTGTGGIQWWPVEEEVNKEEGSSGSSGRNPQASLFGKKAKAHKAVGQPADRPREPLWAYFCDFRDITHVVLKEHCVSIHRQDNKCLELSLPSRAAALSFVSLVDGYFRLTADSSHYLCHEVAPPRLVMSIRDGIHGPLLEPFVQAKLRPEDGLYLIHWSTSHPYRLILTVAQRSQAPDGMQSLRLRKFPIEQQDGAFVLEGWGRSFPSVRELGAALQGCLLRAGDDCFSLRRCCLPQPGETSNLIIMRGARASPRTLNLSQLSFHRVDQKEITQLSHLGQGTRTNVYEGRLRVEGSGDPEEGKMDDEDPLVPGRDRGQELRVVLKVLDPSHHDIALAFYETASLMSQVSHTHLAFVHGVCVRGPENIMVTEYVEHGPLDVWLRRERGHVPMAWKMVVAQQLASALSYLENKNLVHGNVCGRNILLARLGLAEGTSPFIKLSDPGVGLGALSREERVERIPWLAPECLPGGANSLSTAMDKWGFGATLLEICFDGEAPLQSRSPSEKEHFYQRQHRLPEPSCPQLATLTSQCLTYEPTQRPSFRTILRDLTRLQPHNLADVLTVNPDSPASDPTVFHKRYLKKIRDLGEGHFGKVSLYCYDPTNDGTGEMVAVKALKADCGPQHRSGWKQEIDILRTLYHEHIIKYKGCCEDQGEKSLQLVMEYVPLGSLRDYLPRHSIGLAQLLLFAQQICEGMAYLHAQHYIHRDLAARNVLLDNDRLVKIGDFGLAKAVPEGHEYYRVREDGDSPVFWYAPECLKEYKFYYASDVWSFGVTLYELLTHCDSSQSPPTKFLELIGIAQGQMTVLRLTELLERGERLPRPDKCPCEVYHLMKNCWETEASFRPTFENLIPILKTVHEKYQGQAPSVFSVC

Cc1cc(Nc2nccc3nc(-c4c(Cl)cc(C#N)cc4Cl)[nH]c23)ncn1
Activity (Mus musculus [1]): 55%
Ki [2]: 0.7 nM
efflux ratio [3]: 1.1
Ki [4]: 108 nM
fraction unbound [5]: 0.028
Cp(f) (Plasma [6]): 1.5 µM
inhibition (Mus musculus [7]): Dose-dependent effect
Ratio [8]: 39
Activity (Mus musculus [9]): 100%
EC50 [10]: 1400 nM
Activity (Mus musculus [11]): 74%
Activity (Mus musculus [12]): 54%
Activity (Mus musculus [13]): 99%
Ratio [14]: 23
inhibition [15]: > 50%
Ratio Ki (Homo sapiens): 31
fraction unbound [16]: 0.034
inhibition in vivo at 70 mg/kg (Mus musculus [17]): 72%
Activity (Mus musculus [18]): 20%
Papp A→B [19]: 12.7 ×10⁻⁶ cm/s
inhibition [20]: > 50%
inhibition in vivo at 100 mg/kg (Mus musculus [21]): 87%
Cp(f) (Plasma [22]): 0.86 µM
Cp(f) (Plasma [23]): 2.6 µM
fraction unbound [24]: 0.039
Ki [25]: 22 nM
inhibition [26]: 67%
Ki [27]: 24 nM
Ratio [28]: 1.9
inhibition in vivo at 30 mg/kg (Mus musculus [29]): 30%
clearance [30]: 3.6 mL/min/kg
Ki [31]: 89 nM
Ratio [32]: 0.61
clearance [33]: 5.1 mL/min/kg
Activity (Mus musculus [34]): 21%
